Data as given in patent publication EP4660190A1, “PHARMACEUTICALLY ACCEPTABLE SALT OF COMPOUND AND PREPARATION METHOD THEREFOR” (Jiangsu Chia Tai Fenghai Pharmaceutical Co., Ltd., priority 2023, dated 2024).
“And” between values parts separate entries of the source, which are not always exact repeats. Equal entries are not always repeated.

Experiments:
[1] = Distribution in plasma and brain tissues of rats; type: in vivo, Male SD rats; settings: rat, 20mg/kg p.o.
Source text: The concentration of compound in the plasma and brain tissue samples was quantified by liquid chromatography-tandem mass spectrometry (LC-MS/MS).

[2] = test system: Middle cerebral artery occlusion (MCAO) models of SD rats; assay: Rat MCAO model, 7 daily doses, neurobehavioral scoring (Bederson, NSS); type: in vivo; parameters: scale not given here; settings: for NSS: 60mg/kg
Source text: Middle cerebral artery occlusion (MCAO) models of SD rats were constructed using the suture occlusion method to evaluate the neuroprotective effect of the compound on neurons of rats after cerebral ischemia-reperfusion. […] The ECA was ligated. The ICA was temporarily occluded. Sutures were threaded at both the proximal end and the distal end of CCA. The distal end was securely ligated, and a loosely tied knot was placed at the proximal end. A small incision was made on the CCA between these two sutures. […] The threading was halted temporarily when reaching the artery clamp of ICA. The pre-ligation suture was further tightened. The artery clamp blocking the blood flow in the ICA was removed, allowing the suture occlusion to be advanced into the ICA until it entered the intracranial region. […] The insertion was stopped at the moment, and the time was recorded. The artery clamp on the CCA was removed and the incision was closed after no active bleeding was observed. The ischemic rats were placed at room temperature to keep their body temperature at 37°C, and anesthesia induction could be carried out 120min later. The suture was slowly and gradually withdrawn when the rats were maintained under anesthesia, so that the proximal end of the suture returned to the ECA, thereby initiating reperfusion of the middle cerebral artery. […] A single dose was administered immediately after reperfusion (within 10 minutes), followed by one dose per day for a total of 7 consecutive doses (including the first dose). Except for the initial administration, all subsequent doses were given between 4:00 PM and 7:00 PM each day. […] Animals were euthanized 7 days after ischemia reperfusion, and the brains were rapidly taken, frozen, and dissected for TTC staining. The normal tissues were rose-red after staining, and the infarcted tissues were white. The infarct size (%) percentage, calculated as the weight of infarcted tissues to the weight of the whole brain, is used to evaluate the degree of cerebral ischemic injury in rats. […] Table 12 Cerebral infarct size and cerebral infarction inhibition rate of experimental animals (2) Neurobehavioral scoring: […] Table 13: Results of Neurobehavioral Scores in Animals

[3] = test system: Middle cerebral artery occlusion (MCAO) models of SD rats; assay: Rat MCAO model, 7 daily doses, TTC staining cerebral infarction; type: in vivo
Source text: Middle cerebral artery occlusion (MCAO) models of SD rats were constructed using the suture occlusion method to evaluate the neuroprotective effect of the compound on neurons of rats after cerebral ischemia-reperfusion. […] The ECA was ligated. The ICA was temporarily occluded. Sutures were threaded at both the proximal end and the distal end of CCA. The distal end was securely ligated, and a loosely tied knot was placed at the proximal end. A small incision was made on the CCA between these two sutures. […] The threading was halted temporarily when reaching the artery clamp of ICA. The pre-ligation suture was further tightened. The artery clamp blocking the blood flow in the ICA was removed, allowing the suture occlusion to be advanced into the ICA until it entered the intracranial region. […] The insertion was stopped at the moment, and the time was recorded. The artery clamp on the CCA was removed and the incision was closed after no active bleeding was observed. The ischemic rats were placed at room temperature to keep their body temperature at 37°C, and anesthesia induction could be carried out 120min later. The suture was slowly and gradually withdrawn when the rats were maintained under anesthesia, so that the proximal end of the suture returned to the ECA, thereby initiating reperfusion of the middle cerebral artery. […] A single dose was administered immediately after reperfusion (within 10 minutes), followed by one dose per day for a total of 7 consecutive doses (including the first dose). Except for the initial administration, all subsequent doses were given between 4:00 PM and 7:00 PM each day. […] Animals were euthanized 7 days after ischemia reperfusion, and the brains were rapidly taken, frozen, and dissected for TTC staining. The normal tissues were rose-red after staining, and the infarcted tissues were white. The infarct size (%) percentage, calculated as the weight of infarcted tissues to the weight of the whole brain, is used to evaluate the degree of cerebral ischemic injury in rats. […] Table 12 Cerebral infarct size and cerebral infarction inhibition rate of experimental animals

[4] = test system: Middle cerebral artery occlusion (MCAO) models of SD rata; assay: Rat MCAO model, 28-day dosing, novel object recognition test; type: in vivo, SD rats; settings: test on D27, Mean±SD
Method: Middle cerebral artery occlusion (MCAO) models of SD rata were constructed by using the suture occlusion method. The rats were administered with the test compound for 28 consecutive days. The pharmacodynamic evaluation on the test compound for cerebral stroke was obtained based on general observation and neurobehavioral assessment. […] The ECA was ligated. The ICA was temporarily occluded. Sutures were threaded at both the proximal end and the distal end of CCA. The distal end was securely ligated, and a loosely tied knot was placed at the proximal end. A small incision was made on the CCA between these two sutures. […] The threading was halted temporarily when reaching the artery clamp of ICA. The pre-ligation suture was further tightened. The artery clamp blocking the blood flow in the ICA was removed, allowing the suture occlusion to be advanced into the ICA until it entered the intracranial region. […] The insertion was stopped at the moment, and the time was recorded. The artery clamp on the CCA was removed and the incision was closed after no active bleeding was observed. The ischemic rats were placed at room temperature to keep their body temperature at 37°C, and anesthesia induction could be carried out 120min later. The suture was slowly and gradually withdrawn under anesthesia until the proximal end retracted into the ECA, thereby initiating reperfusion of the middle cerebral artery. Animals received the designated dosage immediately (within 10 min) after reperfusion. This dosing regimen continued once daily for a duration of 28 days, with the day of operation being defined as D1 (Day 0). […] After the completion of the 28-day dosing period, all surviving animals in the study were euthanized, and their brains were rapidly collected for pathological analysis. […] Table 8 Results of Grid Walking Test (2) A novel object recognition test was performed on the last day of the treatment and the novel object recognition index (NRI) of animals in each group was calculated. […] The result has shown that Compound (I) has significant effect on animals with cognitive impairment caused by stroke (see details in Table 9). Table 9 Results of novel object recognition tests

[5] = 60mg/kg oral, 7 daily doses, 7 days after reperfusion, Mean±SD

Molecule: CCCCC1OC(=O)c2ccccc21 (centres unmarked) [Butylphthalide, butylphthalide, reference compound]
- Measured value in brain tissues Concentration ([1]; 0.5 h): 28.5 ng/g
- Measured value in plasma Concentration ([1]; 0.5 h): 26.0 ng/mL
- Measured value in brain tissues Concentration ([1]; 1 h): 22.8 ng/g
- Measured value in plasma Concentration ([1]; 1 h): 19.1 ng/mL
- Measured value in brain tissues Concentration ([1]; 4h): 10.2 ng/g
- Measured value in plasma Concentration ([1]; 4h): 7.2 ng/mL
- Measured value in plasma Concentration ([1]; 24 h): 1.7 ng/mL
- Bederson ([2]; 60mg/kg group, score after surgery, Mean±SD): 3.00± 0.00
- NSS ([2]; D0 (one day before surgery), Mean±SD): 0.00± 0.00
- NSS ([2]; D2 (1 day after surgery), Mean±SD): 6.71± 1.36
- NSS ([2]; D4 (3 days after surgery), Mean±SD): 5.75±0.92
- NSS ([2]; D6 (5 days after surgery), Mean±SD): 4.88± 1.73
- NSS ([2]; D8 (7 days after surgery), Mean±SD): 4.04±1.20
- Cerebral infarction inhibition rate (%) [3, 5]: 28.624±14.597%
- Infarct Size (%) [3, 5]: 14.241±2.912%
- Infarct area weight [3, 5]: 0.175 ± 0.032 g
- Sniffing time (S) Familiar object ([4]; 60mg/kg p.o. q.d.): 1.60± 1.01 S
- Sniffing time (S) Novel object ([4]; 60mg/kg p.o. q.d.): 4.94± 3.60 S

Molecule: CCC/C(O)=C1/C(=O)Oc2ccccc21 [Compound (I)]
- Measured value in brain tissues Concentration ([1]; 0.5 h): 8733.3 ng/g
- Measured value in plasma Concentration ([1]; 0.5 h): 241333.3 ng/mL
- Measured value in brain tissues Concentration ([1]; 1 h): 5726.7 ng/g
- Measured value in plasma Concentration ([1]; 1 h): 192333.3 ng/mL
- Measured value in brain tissues Concentration ([1]; 4h): 5030.0 ng/g
- Measured value in plasma Concentration ([1]; 4h): 182333.3 ng/mL
- Measured value in brain tissues Concentration ([1]; 24 h): 285.3 ng/g
- Measured value in plasma Concentration ([1]; 24 h): 23500.0 ng/mL
- Recognition index (%) Familiar object ([4]; high dose 20mg/kg p.o. q.d.): 28.34± 17.06%
- Sniffing time (S) Familiar object ([4]; high dose 20mg/kg p.o. q.d.): 2.20± 1.66 S
- Sniffing time (S) Novel object ([4]; high dose 20mg/kg p.o. q.d.): 5.62± 3.60 S
- Recognition index (%) Novel object ([4]; high dose 20mg/kg p.o. q.d., 20 mg/kg): 71.66±17.06%
- Recognition index (%) Familiar object ([4]; low dose 6mg/kg p.o. q.d.): 29.02± 22.60%
- Sniffing time (S) Familiar object ([4]; low dose 6mg/kg p.o. q.d.): 1.54± 1.10 S
- Sniffing time (S) Novel object ([4]; low dose 6mg/kg p.o. q.d.): 4.74± 3.61 S
- Recognition index (%) Novel object ([4]; low dose 6mg/kg p.o. q.d., 6 mg/kg): 70.98±22.60%

Molecule: (Z)-3-(1-hydroxybutenyl)benzofuran-2-one tromethamine salt [Example 10]
- Bederson ([2]; rat, in vivo): 3.00± 0.00
- Cerebral infarction inhibition rate (%) ([3]; rat, in vivo): 26.236± 12.737% and 31.023± 11.150%
- Infarct Size (%) ([3]; rat, in vivo): 14.717±2.541 % and 13.762±2.225 %
- Infarct area weight ([3]; rat, in vivo): 0.183 ± 0.036 g and 0.176 ± 0.030 g
